Results as given in patent US20250084039A1, “4-SUBSTITUTED AMINOISOQUINOLINE DERIVATIVES” (Purdue Research Foundation, priority 2016, published 2025).
Where two headings read alike, the source gives them in different places.

Experiments:
AKT1 = AKT1 (Homo sapiens (Human), UniProt P31749); assay: Reaction Biology HotSpot kinase assay; assay type: biochemical; conditions: 500 nM compound
Method in brief: (§1)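 Compounds were screened at one concentration, 500 nM, in a radiometric kinase reaction. After a 20-minute preincubation with enzyme and substrate in pH 7.5 HEPES buffer (1% DMSO), the mixture received 100 μM ATP containing [γ-33P]ATP and was left 2 h at room temperature.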

ALK = ALK (Homo sapiens (Human), UniProt Q9UM73); assay: Reaction Biology HotSpot kinase assay; assay type: biochemical; conditions: 500 nM compound
Method in brief: (§2)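 Each compound was tested at 500 nM, with 33P incorporation from ATP (100 μM final, including [γ-33P]ATP) measured by P81 paper capture after a 2 h room-temperature reaction.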

AXL = AXL (Homo sapiens (Human), UniProt P30530); assay: Reaction Biology HotSpot kinase assay; assay type: biochemical; conditions: 500 nM compound
Method in brief: as §2

BRAF = BRAF (Homo sapiens (Human), UniProt P15056); assay: Reaction Biology HotSpot kinase assay; assay type: biochemical; conditions: 500 nM compound
Method in brief: as §2

BTK = BTK (Homo sapiens (Human), UniProt Q06187); assay: Reaction Biology HotSpot kinase assay; assay type: biochemical; conditions: 500 nM compound
Method in brief: as §2

EGFR = EGFR (Homo sapiens (Human), UniProt P00533); assay: Reaction Biology HotSpot kinase assay; assay type: biochemical; conditions: 500 nM compound
Method in brief: as §2

EPHA5 = EPHA5 (Homo sapiens (Human), UniProt P54756); assay: Reaction Biology HotSpot kinase assay; assay type: biochemical; conditions: 500 nM compound
Method in brief: as §2

EPHB2 = EPHB2 (Homo sapiens (Human), UniProt P29323); assay: Reaction Biology HotSpot kinase assay; assay type: biochemical; conditions: 500 nM compound
Method in brief: as §2

ERBB2/HER2 = ERBB2/HER2 (Homo sapiens (Human), UniProt P04626); assay: Reaction Biology HotSpot kinase assay; assay type: biochemical; conditions: 500 nM compound
Method in brief: as §2

FGFR1 = FGFR1 (Homo sapiens (Human), UniProt P11362); assay: Reaction Biology HotSpot kinase assay; assay type: biochemical; conditions: 500 nM compound
Method in brief: as §1

FGR = FGR (Homo sapiens (Human), UniProt P09769); assay: Reaction Biology HotSpot kinase assay; assay type: biochemical; conditions: 500 nM compound
Method in brief: as §2

FLT1/VEGFR1 = FLT1/VEGFR1 (Homo sapiens (Human), UniProt P17948); assay: Reaction Biology HotSpot kinase assay; assay type: biochemical; conditions: 500 nM compound
Method in brief: as §2

FLT3 = FLT3 (Homo sapiens (Human), UniProt P36888); assay: Reaction Biology HotSpot kinase assay; assay type: biochemical; conditions: 500 nM compound
Method in brief: as §1

FLT4/VEGFR3 = FLT4/VEGFR3 (Homo sapiens (Human), UniProt P35916); assay: Reaction Biology HotSpot kinase assay; assay type: biochemical; conditions: 500 nM compound
Method in brief: as §2

KDR/VEGFR2 = KDR/VEGFR2 (Homo sapiens (Human), UniProt P35968); assay: Reaction Biology HotSpot kinase assay; assay type: biochemical; conditions: 500 nM compound
Method in brief: as §2

PDGFRa = PDGFRa (Homo sapiens (Human), UniProt P16234); assay: Reaction Biology HotSpot kinase assay; assay type: biochemical; conditions: 500 nM compound
Method in brief: as §2

PKCa = PKCa (Homo sapiens (Human), UniProt P17252); assay: Reaction Biology HotSpot kinase assay; assay type: biochemical; conditions: 500 nM compound
Method in brief: as §2

ROS/ROS1 = ROS/ROS1 (Homo sapiens (Human), UniProt P08922); assay: Reaction Biology HotSpot kinase assay; assay type: biochemical; conditions: 500 nM compound
Method in brief: as §2

TIE2/TEK = TIE2/TEK (Homo sapiens (Human), UniProt Q02763); assay: Reaction Biology HotSpot kinase assay; assay type: biochemical; conditions: 500 nM compound
Method in brief: as §2

TRKB = TRKB (Homo sapiens (Human), UniProt Q16620); assay: Reaction Biology HotSpot kinase assay; assay type: biochemical; conditions: 500 nM compound
Method in brief: as §2

YES/YES1 = YES/YES1 (Homo sapiens (Human), UniProt P07947); assay: Reaction Biology HotSpot kinase assay; assay type: biochemical; conditions: 500 nM compound
Method in brief: as §2

c-MER = c-MER (Homo sapiens (Human), UniProt Q12866); assay: Reaction Biology HotSpot kinase assay; assay type: biochemical; conditions: 500 nM compound
Method in brief: as §2

c-Met = c-Met (Homo sapiens (Human), UniProt P08581); assay: Reaction Biology HotSpot kinase assay; assay type: biochemical; conditions: 500 nM compound
Method in brief: as §2

K562 = assay: IC50 proliferation assay (Alamar Blue, 72 h); assay type: cell-based
MV4-11 = assay: IC50 proliferation assay (Alamar Blue, 72 h); assay type: cell-based; conditions: read-out: IC50 (proliferation inhibition) Cell line - MV4-11
Method in brief: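 Cells seeded ~18 h before treatment with semi-serial compound dilutions made in DMSO then growth medium. After 72 h exposure, Alamar Blue added and read following 4 h further at 37 °C; IC50 for proliferation inhibition.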

Chain of FLT3 (P36888 27-993): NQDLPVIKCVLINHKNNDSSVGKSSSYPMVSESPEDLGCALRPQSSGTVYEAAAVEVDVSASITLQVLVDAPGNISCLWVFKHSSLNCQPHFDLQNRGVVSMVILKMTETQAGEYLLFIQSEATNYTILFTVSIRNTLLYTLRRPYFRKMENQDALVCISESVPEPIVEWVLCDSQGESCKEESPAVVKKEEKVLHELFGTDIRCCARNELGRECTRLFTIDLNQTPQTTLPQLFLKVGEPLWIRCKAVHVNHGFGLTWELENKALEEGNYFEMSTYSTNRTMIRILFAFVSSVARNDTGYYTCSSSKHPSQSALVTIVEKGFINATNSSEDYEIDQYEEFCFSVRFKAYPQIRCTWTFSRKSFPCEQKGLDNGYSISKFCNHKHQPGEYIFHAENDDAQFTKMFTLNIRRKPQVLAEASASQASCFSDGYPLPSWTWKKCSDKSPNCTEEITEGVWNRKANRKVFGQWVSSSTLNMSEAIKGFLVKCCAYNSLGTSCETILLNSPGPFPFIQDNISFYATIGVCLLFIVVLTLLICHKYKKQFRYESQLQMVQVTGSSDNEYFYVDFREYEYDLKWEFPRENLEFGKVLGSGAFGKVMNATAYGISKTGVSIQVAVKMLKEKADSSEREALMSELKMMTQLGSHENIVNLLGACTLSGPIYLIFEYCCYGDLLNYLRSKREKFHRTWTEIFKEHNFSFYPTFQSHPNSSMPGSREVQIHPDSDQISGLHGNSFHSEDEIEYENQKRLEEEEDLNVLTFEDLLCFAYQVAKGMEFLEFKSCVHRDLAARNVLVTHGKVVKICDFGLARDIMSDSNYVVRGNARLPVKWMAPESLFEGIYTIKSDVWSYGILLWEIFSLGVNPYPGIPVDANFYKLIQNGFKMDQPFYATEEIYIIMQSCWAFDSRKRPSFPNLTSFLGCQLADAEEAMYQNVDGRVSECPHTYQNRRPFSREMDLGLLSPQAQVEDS
Chain of ALK (Q9UM73 19-1620): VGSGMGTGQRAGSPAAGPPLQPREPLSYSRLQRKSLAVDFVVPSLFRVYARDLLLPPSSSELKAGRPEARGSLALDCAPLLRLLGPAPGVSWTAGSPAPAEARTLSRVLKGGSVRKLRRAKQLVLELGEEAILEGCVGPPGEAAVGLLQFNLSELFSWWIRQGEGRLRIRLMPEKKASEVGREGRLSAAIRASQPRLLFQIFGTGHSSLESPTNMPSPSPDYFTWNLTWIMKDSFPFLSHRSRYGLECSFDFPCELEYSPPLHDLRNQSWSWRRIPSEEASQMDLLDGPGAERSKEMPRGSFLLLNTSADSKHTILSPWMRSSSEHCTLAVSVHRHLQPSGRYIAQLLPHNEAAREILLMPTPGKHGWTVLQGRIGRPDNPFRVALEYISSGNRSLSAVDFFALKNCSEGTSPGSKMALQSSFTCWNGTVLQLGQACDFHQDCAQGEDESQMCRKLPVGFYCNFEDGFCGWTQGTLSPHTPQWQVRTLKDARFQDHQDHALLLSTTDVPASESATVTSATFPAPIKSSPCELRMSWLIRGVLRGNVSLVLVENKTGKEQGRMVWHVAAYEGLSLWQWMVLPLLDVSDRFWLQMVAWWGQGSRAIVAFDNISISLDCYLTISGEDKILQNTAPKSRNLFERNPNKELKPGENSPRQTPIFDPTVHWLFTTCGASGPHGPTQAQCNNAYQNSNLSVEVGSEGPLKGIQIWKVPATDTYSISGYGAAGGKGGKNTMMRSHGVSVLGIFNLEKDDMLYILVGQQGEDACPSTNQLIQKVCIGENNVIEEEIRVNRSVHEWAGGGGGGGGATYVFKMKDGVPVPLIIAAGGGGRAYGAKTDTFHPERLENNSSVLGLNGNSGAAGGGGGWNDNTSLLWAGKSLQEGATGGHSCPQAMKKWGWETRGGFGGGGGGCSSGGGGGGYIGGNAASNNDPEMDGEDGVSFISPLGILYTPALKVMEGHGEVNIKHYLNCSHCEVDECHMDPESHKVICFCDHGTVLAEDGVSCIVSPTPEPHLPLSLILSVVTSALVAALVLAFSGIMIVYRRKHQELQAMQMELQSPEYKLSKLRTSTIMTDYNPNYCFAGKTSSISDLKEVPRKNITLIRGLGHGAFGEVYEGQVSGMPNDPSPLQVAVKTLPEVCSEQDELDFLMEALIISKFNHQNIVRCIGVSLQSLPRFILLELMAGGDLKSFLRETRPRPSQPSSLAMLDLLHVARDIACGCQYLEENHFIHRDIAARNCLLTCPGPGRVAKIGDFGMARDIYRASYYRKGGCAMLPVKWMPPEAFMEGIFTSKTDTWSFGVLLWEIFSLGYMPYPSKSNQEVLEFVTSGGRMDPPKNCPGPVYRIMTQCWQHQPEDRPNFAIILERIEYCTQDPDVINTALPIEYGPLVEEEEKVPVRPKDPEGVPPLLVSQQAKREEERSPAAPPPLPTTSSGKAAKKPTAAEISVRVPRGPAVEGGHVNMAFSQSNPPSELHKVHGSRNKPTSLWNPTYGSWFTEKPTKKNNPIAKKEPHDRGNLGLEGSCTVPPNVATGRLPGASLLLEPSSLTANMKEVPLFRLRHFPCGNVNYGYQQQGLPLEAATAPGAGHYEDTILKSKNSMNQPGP
Chain of EGFR (P00533 25-1210): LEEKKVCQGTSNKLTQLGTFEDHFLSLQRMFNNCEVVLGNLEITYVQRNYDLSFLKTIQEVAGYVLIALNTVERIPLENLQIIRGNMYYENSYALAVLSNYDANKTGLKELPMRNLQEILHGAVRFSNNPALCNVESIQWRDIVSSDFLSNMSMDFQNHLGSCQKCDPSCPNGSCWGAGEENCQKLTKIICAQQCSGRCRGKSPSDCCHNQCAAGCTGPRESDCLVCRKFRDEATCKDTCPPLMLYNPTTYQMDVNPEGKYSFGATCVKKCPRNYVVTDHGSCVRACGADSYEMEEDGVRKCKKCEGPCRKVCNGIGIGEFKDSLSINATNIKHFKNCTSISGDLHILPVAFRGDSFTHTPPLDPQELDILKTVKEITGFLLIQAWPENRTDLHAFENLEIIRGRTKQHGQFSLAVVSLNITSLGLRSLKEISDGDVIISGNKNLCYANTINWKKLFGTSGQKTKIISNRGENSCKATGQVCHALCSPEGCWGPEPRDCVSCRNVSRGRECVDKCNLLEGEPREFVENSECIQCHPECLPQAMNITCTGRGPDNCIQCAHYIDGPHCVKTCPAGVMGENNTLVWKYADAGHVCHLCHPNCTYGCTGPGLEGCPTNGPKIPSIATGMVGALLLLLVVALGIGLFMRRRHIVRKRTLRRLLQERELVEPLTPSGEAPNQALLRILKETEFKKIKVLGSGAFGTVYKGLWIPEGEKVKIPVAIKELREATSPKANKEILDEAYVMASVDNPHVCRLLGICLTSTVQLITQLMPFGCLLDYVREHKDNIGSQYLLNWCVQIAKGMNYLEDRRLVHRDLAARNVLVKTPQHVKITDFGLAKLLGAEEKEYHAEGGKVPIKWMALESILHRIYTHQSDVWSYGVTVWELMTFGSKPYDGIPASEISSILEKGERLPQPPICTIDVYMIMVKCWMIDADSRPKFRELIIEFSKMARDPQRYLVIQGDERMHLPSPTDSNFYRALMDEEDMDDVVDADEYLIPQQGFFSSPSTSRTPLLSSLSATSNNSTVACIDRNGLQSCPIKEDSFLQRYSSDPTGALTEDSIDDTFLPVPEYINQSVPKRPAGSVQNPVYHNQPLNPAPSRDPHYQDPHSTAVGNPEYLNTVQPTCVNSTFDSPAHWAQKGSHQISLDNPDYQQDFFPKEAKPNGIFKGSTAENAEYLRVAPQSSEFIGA
Chain of EPHA5 (P54756 25-1037): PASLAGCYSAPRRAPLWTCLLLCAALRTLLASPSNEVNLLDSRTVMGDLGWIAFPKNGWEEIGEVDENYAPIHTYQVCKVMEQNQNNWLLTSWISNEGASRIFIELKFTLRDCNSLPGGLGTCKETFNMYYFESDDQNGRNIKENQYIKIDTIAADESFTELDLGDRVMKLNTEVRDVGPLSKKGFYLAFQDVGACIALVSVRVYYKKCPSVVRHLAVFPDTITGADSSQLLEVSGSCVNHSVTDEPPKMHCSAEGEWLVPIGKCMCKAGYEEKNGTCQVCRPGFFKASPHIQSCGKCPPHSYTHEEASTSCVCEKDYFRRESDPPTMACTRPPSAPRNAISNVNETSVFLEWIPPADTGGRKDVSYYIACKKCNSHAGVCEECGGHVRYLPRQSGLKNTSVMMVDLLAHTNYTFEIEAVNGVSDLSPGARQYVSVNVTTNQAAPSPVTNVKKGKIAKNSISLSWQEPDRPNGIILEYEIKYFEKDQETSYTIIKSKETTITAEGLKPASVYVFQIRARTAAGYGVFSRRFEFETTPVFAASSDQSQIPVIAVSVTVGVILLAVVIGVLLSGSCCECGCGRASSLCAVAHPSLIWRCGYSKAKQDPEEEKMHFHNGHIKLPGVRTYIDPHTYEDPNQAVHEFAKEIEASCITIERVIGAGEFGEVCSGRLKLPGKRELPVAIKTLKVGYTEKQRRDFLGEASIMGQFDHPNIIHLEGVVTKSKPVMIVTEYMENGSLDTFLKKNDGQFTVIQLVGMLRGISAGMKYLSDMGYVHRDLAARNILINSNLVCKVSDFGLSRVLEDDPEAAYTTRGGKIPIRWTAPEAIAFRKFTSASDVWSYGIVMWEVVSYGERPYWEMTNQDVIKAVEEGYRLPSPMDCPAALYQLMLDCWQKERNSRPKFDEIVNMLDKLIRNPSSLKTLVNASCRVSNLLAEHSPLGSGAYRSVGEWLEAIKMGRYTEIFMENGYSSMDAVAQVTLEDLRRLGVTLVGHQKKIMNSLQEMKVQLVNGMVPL

CN(C)CC(O)CNC(=O)c1ccc(C#Cc2c(N)ncc3ccc(Cl)cc23)cc1 (stereo not shown) [HSM1702]
Percentage kinase inhibition AKT1 (AKT1): 13%
Percentage kinase inhibition ALK (ALK): 7%
Percentage kinase inhibition AXL (AXL): 0%
Percentage kinase inhibition BRAF (BRAF): 3%
Percentage kinase inhibition BTK (BTK): 5%
Percentage kinase inhibition EGFR (EGFR): 0%
Percentage kinase inhibition EPHA5 (EPHA5): 4%
Percentage kinase inhibition EPHB2 (EPHB2): 5%
Percentage kinase inhibition ERBB2/HER2 (ERBB2/HER2): 0%
Percentage kinase inhibition FGFR1 (FGFR1): 11%
Percentage kinase inhibition FGR (FGR): 6%
Percentage kinase inhibition FLT1/VEGFR1 (FLT1/VEGFR1): 0%
% inhibition of FLT3 activity (FLT3): 66%
Percentage kinase inhibition FLT4/VEGFR3 (FLT4/VEGFR3): 10%
Percentage kinase inhibition KDR/VEGFR2 (KDR/VEGFR2): 9%
Percentage kinase inhibition PDGFRa (PDGFRa): 48%
Percentage kinase inhibition PKCa (PKCa): 3%
Percentage kinase inhibition ROS/ROS1 (ROS/ROS1): 15%
Percentage kinase inhibition TIE2/TEK (TIE2/TEK): 8%
Percentage kinase inhibition TRKB (TRKB): 40%
Percentage kinase inhibition YES/YES1 (YES/YES1): 13%
Percentage kinase inhibition c-MER (c-MER): 6%
Percentage kinase inhibition c-Met (c-Met): 4%
IC50 (K562; 72 h, read-out: IC50 (proliferation inhibition) Cell line - K562): 5060 nM
IC50 (K562; Table 18, read-out: Inhibition of proliferation of K562 cell lines (CML)): 5057 ± 0.45 nM
IC50 (MV4-11; 72 h): 71 nM

Cc1ccc(C(=O)Nc2ccc(CN3CCN(C)CC3)c(C(F)(F)F)c2)cc1C#Cc1cc(N)nc2ccccc12 [HSN285]
inhibition at 0.5 µM (AKT1; read-out: Percentage kinase inhibition AKT1): 0%
inhibition at 0.5 µM (ALK; read-out: Percentage kinase inhibition ALK): 1%
inhibition at 0.5 µM (AXL; read-out: Percentage kinase inhibition AXL): 0%
inhibition at 0.5 µM (BRAF; read-out: Percentage kinase inhibition BRAF): 64%
inhibition at 0.5 µM (BTK; read-out: Percentage kinase inhibition BTK): 0%
inhibition at 0.5 µM (EGFR; read-out: Percentage kinase inhibition EGFR): 0%
inhibition at 0.5 µM (EPHA5; read-out: Percentage kinase inhibition EPHA5): 0%
inhibition at 0.5 µM (EPHB2; read-out: Percentage kinase inhibition EPHB2): 3%
inhibition at 0.5 µM (ERBB2/HER2; read-out: Percentage kinase inhibition ERBB2/HER2): 0%
inhibition at 0.5 µM (FGFR1; read-out: Percentage kinase inhibition FGFR1): 0%
inhibition at 0.5 µM (FGR; read-out: Percentage kinase inhibition FGR): 0%
inhibition at 0.5 µM (FLT1/VEGFR1; read-out: Percentage kinase inhibition FLT1/VEGFR1): 3%
inhibition at 0.5 µM (FLT3; read-out: % inhibition of FLT3 activity): 28%
inhibition at 0.5 µM (FLT4/VEGFR3; read-out: Percentage kinase inhibition FLT4/VEGFR3): 6%
inhibition at 0.5 µM (KDR/VEGFR2; read-out: Percentage kinase inhibition KDR/VEGFR2): 15%
inhibition at 0.5 µM (PDGFRa; read-out: Percentage kinase inhibition PDGFRa): 30%
inhibition at 0.5 µM (PKCa; read-out: Percentage kinase inhibition PKCa): 6%
inhibition at 0.5 µM (ROS/ROS1; read-out: Percentage kinase inhibition ROS/ROS1): 0%
inhibition at 0.5 µM (TIE2/TEK; read-out: Percentage kinase inhibition TIE2/TEK): 0%
inhibition at 0.5 µM (TRKB; read-out: Percentage kinase inhibition TRKB): 0%
inhibition at 0.5 µM (YES/YES1; read-out: Percentage kinase inhibition YES/YES1): 0%
inhibition at 0.5 µM (c-MER; read-out: Percentage kinase inhibition c-MER): 3%
inhibition at 0.5 µM (c-Met; read-out: Percentage kinase inhibition c-Met): 23%
IC50 (K562; Homo sapiens, K562, 72 h, read-out: IC50 (proliferation inhibition) Cell line - K562): 1100 nM
IC50 (K562; Homo sapiens, K562, Table 18, read-out: Inhibition of proliferation of K562 cell lines (CML)): 1102 ± 0.08 nM
IC50 (MV4-11; Homo sapiens, MV4-11, 72 h): 722 nM
